According to patent US10779531B2, “Insect repellent” (Kao Corporation, priority 2015, dated 2020):

How the values were obtained:
[1] = test system: carbon dioxide-sensitive sensory hair of an Asian tiger mosquito; experiment: Evaluation of carbon dioxide response-inhibiting effect (nerve firing recording of sensory hair); type: in vivo; conditions: fragrance 1% in paraffin oil, 15 μL on filter paper, olfactory stimulation 1 second, nerve firings relative to paraffin oil, N=1; for pest or weed control at 1 %: Aedes albopictus, 1 s, read-out: Inhibition of carbon dioxide response (%)
Method: (§1) Asian tiger mosquitoes grown from eggs purchased from Sumika Technoservice Corporation were used. A transparent plastic pan was filled with water to a depth of approximately 1 cm, and a filter paper on which the eggs had been deposited was put therein. The larvae were fed with tropical fish feed (TetraMin) every day. After approximately 1 week, the pupae were collected with a dropper, and transferred into a 20 mL plastic cup, and the cup was placed in a netted cage. The adults were fed with 10 mass % sucrose contained in a 25 mL plastic tube. The males and females were kept together in one cage and allowed to mate for 5 days after eclosion. After 5 days of captivity, the adults were collected with an insect aspirator and anesthetized on ice for 5 minutes, and visually sorted into males and females to collect only the females. The wings and legs were removed from each female mosquito under anesthesia, and the female mosquito was pushed onto a double-sided adhesive tape pasted on a microscope slide with the back on the tape and thus fixed thereto, and the antennae and maxillary palpi were positioned, so as to achieve the accessibility of electrodes.
A 1 mol/L aqueous solution of potassium hydroxide was injected into a 50 mL syringe, and the syringe was horizontally fixed to a magnet stand with a clamp. A tungsten wire fixed to an electrode holder was horizontally inserted into the syringe, and polished by electrolysis under microscopic observation. A current was supplied from an AC power source to the syringe through the electrode holder via crocodile clips.
The Asian tiger mosquito prepared on a microscope slide was set under a microscope, and positioned so that the antennae were at the center of the view through a ×10 objective lens. A reference electrode was inserted in the eye of the insect. A pipette for providing an olfactory stimulus was placed near the maxillary palpi, and the objective lens was replaced with a ×100 objective lens. The recording electrode was brought close to the sensory hair, and carefully inserted into the sensory hair with a micromanipulator. The peg-like shape of the carbon dioxide-sensitive sensory hair of an Asian tiger mosquito can be confirmed under microscopic observation. After insertion of the electrode into the sensory hair, the spontaneous nerve firing pattern was investigated. Carbon dioxide the concentration of which had been adjusted to 0.1% was led to an olfactory stimulation apparatus via a silicone tube to stimulate the maxillary palpi for 1 second, and the carbon dioxide response was investigated.
The concentration of each of the fragrances listed in Table 4 was adjusted to 1% with paraffin oil, and the resultant was used as a sample. On a filter paper (3 mm×50 mm) 15 μL of the sample was dropped, and the filter paper was inserted in a Pasteur pipette. The Pasteur pipette was connected to a stimulation apparatus via a plastic tube, and olfactory stimulation was performed for 1 second while the response to carbon dioxide in the air was monitored, and thus the carbon dioxide response-inhibiting effect was evaluated. The number of nerve firings in 1 second after stimulation with paraffin oil as a solvent and the number of nerve firings in 1 second after stimulation with each sample were counted, and the ratio was used for evaluation of the response-inhibiting effect (N=1). Inhibitory rate (%)=100×([number of firings after stimulation with paraffin oil−number of firings after stimulation with sample]/[[number of firings after stimulation with paraffin oil]) (Equation 2)

[2] = test system: female Asian tiger mosquitoes; experiment: Evaluation of inhibitory effect on seeking behavior for heat source (thermoreception-inhibiting effect); type: in vivo, Asian tiger mosquito; conditions: fragrance 0.1% in ethanol, 50 μL on sheet on plate heater, landings counted after 30 seconds of contact, relative to ethanol only; for pest or weed control at 0.1 %: Aedes albopictus, 0.5 min, read-out: Inhibitory rate for seeking for heat source (%)
Method: (1) Preparation of Asian Tiger Mosquitoes
as §1, with “10% by” for “10”, “mass” for “mass %”, “females.” for “females. The wings and legs were removed from each female mosquito under anesthesia, and the female mosquito was pushed onto a double-sided adhesive tape pasted on a microscope slide with the back on the tape and thus fixed thereto, and the antennae and maxillary palpi were positioned, so as to achieve the accessibility of electrodes.”
(2) Evaluation of Inhibitory Effect on Seeking Behavior for Heat Source
Approximately 150 to 200 female Asian tiger mosquitoes were transferred in a plastic cage (30×30×30 cm). To monitor the behavior of the female mosquitoes from the top of the plastic cage, the top surface of the cage was replaced with an acrylic plate. A plate heater (multi-panel heater 16 W for small animals, manufactured by Vivaria) as a heat source was provided at a corner of the cage from the outside of the mesh with an area of 5×3 cm exposed. To take a photograph of the heat source from the top surface in experiment, a video camera (manufactured by Sony Corporation) was disposed above the top surface. A sheet for application of a sample was fixed to the heat source with a double-sided adhesive tape.
The concentration of a fragrance listed in Table 1 was adjusted to 0.1% with ethanol to prepare a sample, and 50 μL of the sample or ethanol as a solvent was administered in experiment. To activate the female mosquitoes, 1% of carbon dioxide was administered from the top for 1 second, and then the heat source was brought into contact with the cage. After 30 seconds of contact, a photograph of the heat source was taken to count the number of mosquitoes attracted. The sheet used for the heat source was discarded and replaced with another sheet every time the assay was completed. In view of the influence of a sample on the mosquitoes, the number of evaluations performed for one cage was limited to (7 samples+1 control) at a maximum. The inhibitory rate relative to the number of landings with application of ethanol solvent only was calculated for one set of assays (7 samples+1 control) to determine the inhibitory effect by using the following equation. Inhibitory rate (%)=100×(1−[number of landings with application of sample]/[number of landings with application of ethanol]) (Equation 1)

[3] = test system: Adult Asian tiger mosquitoes; experiment: Evaluation of inhibition of seeking behavior for human arm (landings on gloved hand); type: in vivo, Asian tiger mosquito; conditions: for Total landing rate (%) / Number of landings total: sample 0.4% in ethanol on cotton-gloved hand; for Total landing rate (%): relative to number of landings with control sample (ethanol) as 100%; for Number of landings total: sum total of 1, 2 and 3 minutes; for Number of landings 1 min / Number of landings 2 min / Number of landings 3 min: sample 0.4% in ethanol, sprayed 14 times (0.6 g) on cotton-gloved hand; for Number of landings 1 min: after 1 minute; for Number of landings 2 min: after 2 minutes; for Number of landings 3 min: after 3 minutes
From the text: Adult Asian tiger mosquitoes consisting of 220 females and 80 males each at 5 to 10 day old were purchased from Sumika Technoservice Corporation, and released in a 30 cm×30 cm×30 cm plastic cage (bug dorm).
The concentration of each of 2,4-dimethylcyclohex-3-ene-1-methanol (“floralol”, IFF Inc.) and octahydro-7-methyl-1,4-methanonaphthalen-6(2H)-one (“PLICATONE”, Firmenich SA) as evaluation samples was adjusted to 0.4% with ethanol. A sample containing only ethanol was used as a control.
Each of the evaluation samples and control sample was sprayed 14 times in total (0.6 g) to both sides of a hand wearing a 100% cotton glove doubly.
After application of the sample, the gloved hand was left to stand for 1 minute to volatilize ethanol, and the gloved hand with the sample applied thereto was then put in the plastic cage, and the number of mosquitoes which landed on the glove was counted every 1 minute.
The numbers of landings after 1 minute, 2 minutes, and 3 minutes, and the sum total of them were counted, and the landing rate relative to the number of landings with application of the control sample as 100% was calculated. This experiment was repeated three times.

Compound | pest or weed control at 1 % [1] [%] | pest or weed control at 0.1 % [2] [%] | other results
CC1=CC(C)C(CO)C(C)C1 (centres unmarked) [2,4,6-Trimethyl-3-cyclohexene-1-methanol, 2,4,6-trimethyl-3-cyclohexene-1-methanol] | 61 |  | 
CCOC(=O)Cc1ccccc1 [Ethyl phenylacetate, ethyl phenylacetate] | 79 |  | 
CCCCC(CC)C(=O)OCC (centres unmarked) [Ethyl 2-ethylhexanoate, ethyl 2-ethylhexanoate] | 51 |  | 
C=CCCCCCCCCO [9-Decen-1-ol, 9-decen-1-ol] | 56 |  | 
CC1C(=O)c2ccccc2C1(C)C (centres unmarked) [2,3,3-Trimethyl-2H-inden-1-one, 2,3,3-trimethyl-2H-inden-1-one] |  | 76.2 | 
CC1CC2C3CCC(C3)C2CC1=O (centres unmarked) [octahydro-7-methyl-1,4-methanonaphthalen-6(2H)-one] |  | 81.3 | Total landing rate (%) [3]: 53.3%; Number of landings total [3]: 12; Number of landings 1 min [3]: 2; Number of landings 2 min [3]: 4; Number of landings 3 min [3]: 6
CC=C1CC2CC1C1CCC(=O)OC21 (centres unmarked) [9-ethylidene-3-oxatricyclo(6.2.1.0^2,7)undecan-4-one] |  | 85.9 | 
CCCCCC1=C(C)CCC1=O [3-Methyl-2-pentylcyclopent-2-en-1-one, 3-methyl-2-pentylcyclopent-2-en-1-one] | 68 |  | 
CC1=CC(C)C(C=O)C(C)C1 (centres unmarked) [Isocyclocitral, isocyclocitral] |  |  | Inhibition of carbon dioxide response (%) [1]: 61%
O=CCOc1ccccc1 [Phenoxyacetaldehyde, phenoxyacetaldehyde] |  | 89 | 
CCCC1CC(=O)C=C(C)C1 (centres unmarked) [3-Methyl-5-propyl-2-cyclohexen-1-one, 3-methyl-5-propyl-2-cyclohexen-1-one] |  | 97.2 | 
COC(OC)C(C)c1ccccc1 (centres unmarked) [2-Phenylpropionaldehyde dimethyl acetal, 2-phenylpropionaldehyde dimethyl acetal] |  | 66.8 | 
Cc1ncsc1CCO [4-Methyl-5-thiazoleethanol, 4-methyl-5-thiazoleethanol] |  | 74.5 | 
CCCCC1CCC(=O)O1 (centres unmarked) [γ-Octalactone, γ-octalactone] |  |  | Inhibitory rate for seeking for heat source (%) [2]: 87.4%
CC1=C(C=O)C(C)(C)CC=C1 [2,6,6-trimethylcyclohexa-1,3-diene-1-carbaldehyde] |  | 91.7 | 
Cc1csc(C(C)C)n1 [2-Isopropyl-4-methylthiazol, 2-isopropyl-4-methylthiazol] | 71 |  | 

Compound | pest or weed control at 1 % [1] [%] | pest or weed control at 0.1 % [2] [%] | other results
O=C1CCC2CCCCC2O1 (centres unmarked) [Octahydro-2H-1-benzopyran-2-one, octahydro-2H-1-benzopyran-2-one] |  | 93.3 | 
CCC(C)(O)CCc1ccccc1 (centres unmarked) [3-Methyl-1-phenyl-3-pentanol, 3-methyl-1-phenyl-3-pentanol] |  | 69.3 | 
CCC(=O)OCc1ccccc1 [Benzyl propionate, benzyl propionate] | 97 |  | 
CC1=CC(C)C(CO)CC1 (centres unmarked) [2,4-Dimethylcyclohex-3-ene-1-methanol, 2,4-dimethylcyclohex-3-ene-1-methanol] | 67 |  | Total landing rate (%) [3]: 71.1%; Number of landings total [3]: 16; Number of landings 1 min [3]: 3; Number of landings 2 min [3]: 6; Number of landings 3 min [3]: 7
CCCCCCCCO [1-Octanol, 1-octanol] | 97 |  | 
CC/C=C\CCOC(C)=O [cis-3-Hexenyl acetate, cis-3-hexenyl acetate] | 50 |  | 
Cc1ccc2ncccc2c1 [6-Methylquinoline, 6-methylquinoline] |  | 64.7 | 
CCCc1ccc(O)c(OC)c1 [2-Methoxy-4-propylphenol, 2-methoxy-4-propylphenol] | 95 |  | 
CCCCCCCCCCO [1-Decanol, 1-decanol] | 54 |  | 
C=CC(O)CCCCC (centres unmarked) [1-Octen-3-ol, 1-octen-3-ol] | 55 |  | 
COC(C)(C)CCCC(C)CC=O (centres unmarked) [7-Methoxy-3,7-dimethyloctanal, 7-methoxy-3,7-dimethyloctanal] |  | 72.4 | 
COC1CC2CC1C1CC(C=O)CC21 (centres unmarked) [octahydro-5-methoxy-4,7-methano-1H-indene-2-carboxaldehyde] |  | 89.2 | 
CC(=O)OC1CCCCC1C(C)(C)C (centres unmarked) [o-tert-Butylcyclohexyl acetate, o-tert-butylcyclohexyl acetate] | 87 |  | 
CCOC(=O)C(C)C1CCCCC1 (centres unmarked) [Ethyl 2-cyclohexylpropionate, ethyl 2-cyclohexylpropionate] | 48 |  | 
CCC/C=C/COC(C)=O [trans-2-Hexenyl acetate, trans-2-hexenyl acetate] | 48 |  | 
